Experimental data reported in US12116344B2, “Crystalline forms of a pharmaceutical compound” (Azafaros B.V., priority 2020, dated 2024).

What was measured:
[1] = Stability of the crystalline form (transition of Form 2 into Form 3); type: physicochemical; settings: Form 2 transitions into Form 3 above around 30° C. in about 1-5 min, or in solvent for more than 5 min at around 25° C.; listed as Form 3
Protocol: Alternatively, Form 2 transitioned into Form 3 upon equilibration in solvent (e.g. acetone) for more than 5 min at around 25° C.

Calbindin-D28k = assay: Brain immunofluorescence of Calbindin-D28k (Purkinje cell marker); type: in vivo, mice
Protocol: Mouse right hemi-brains were fixed by immersion in freshly prepared 4% paraformaldehyde in PB (pH 7.4) for two hours at room temperature. Afterwards, hemispheres were transferred to 15% sucrose/PBS and stored at 4° C. until sunk to ensure cryoprotection. Tissue blocks were then trimmed as needed, transferred to cryomolds, embedded in OCT medium, frozen in dry ice-cooled isopentane and stored in an ultra-deep freezer (set at −80° C. target temperature).
Five consecutive cryosections were sagittally cut at 10 μm thickness on a Leica cryotome. The next 25 sections per level were discarded. This collection scheme was repeated for 12 levels and may have been modified to collect from the correct levels, e.g., if brains were smaller due to young age or genotype. In total 12×5=60 sections were collected. Sectioning levels were chosen according to the brain atlas of Paxinos and Franklin (“The Mouse Brain in Stereotaxic Coordinates”, 2nd edition, 2001). Collection of sections started at a level ˜0.2 mm lateral from midline and extend through the hemisphere to ensure systematic random sampling through the target regions (FIGS. 10 and 15). Sections were stored at −20° C. Almost the entire brain was sectioned, so the residual tissue block was disposed when all sections were collected.
For each incubation, a uniform systematic random set of five sections per mouse was selected (one section each from levels 2, 4, 6, 8, 10); for information on systematic random sampling follow this link: http://www.stereoloqy.info/sampling/ […]
Whole slide scans of the stained sections were recorded on a Zeiss automatic microscope AxioScan Z1 with high aperture lenses, equipped with a Zeiss Axiocam 506 mono and a Hitachi 3CCD HV-F202SCL camera and Zeiss ZEN 2.3 software.
Image analysis was done with Image Pro 10 (Media Cybernetics). […] Afterwards, immunofluorescence was quantitatively evaluated within the identified areas.
For quantification we used background correction if necessary and detect immunoreactive objects by adequate thresholding and morphological filtering (size, shape). […]

Stability of the crystalline form [1]: better stability
SMILES: OC[C@H]1[C@@H](O)[C@H](O)[C@@H](O)CN1CCCCCOCc1ccc(-c2ccccc2)c(F)c1 [AZ-3102]
Calbindin-D28k immunofluorescence in the cerebellum (Calbindin-D28k; NPC (−/−) mice, treated versus vehicle, all readouts): significantly increased | Calbindin-D28k immunofluorescence in the hippocampus (Calbindin-D28k; NPC mice, group comparison): no significant group differences | Cerebellar Purkinje cell loss (Calbindin-D28k; treated compared to vehicle treated NPC (−/−) mice, calbindin-D28k marker): significantly limited
